# From the supplement of paper PMC10307832
# Experiments:
# Experiment in all cases: relative viability (nuclei count vs DMSO), 5 days (fraction); higher = more cells survive
# [1] = system: 201T
# Outline: (§1)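 Five library-drug doses in √10 steps were combined with a fixed anchor-drug dose, or a single drug was given alone, by pin tool to lung cancer cell lines in 1536-well plates the day after seeding. Nuclei were stained and counted after 5 days. Relative viability is the nuclei count in treated wells over that in vehicle wells, taken as the median of duplicate plates.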
# [2] = system: ABC-1
# Outline: as §1
# [3] = system: BEN
# Outline: as §1
# [4] = system: HCC-366
# Outline: as §1
# [5] = system: HCC-44
# Outline: as §1
# [6] = system: HCC-78
# Outline: as §1
# [7] = system: LK-2
# Outline: as §1
# [8] = system: LOU-NH91
# Outline: as §1
# [9] = system: NCI-H1355
# Outline: as §1
# [10] = system: NCI-H1650
# Outline: as §1
# [11] = system: NCI-H1666
# Outline: as §1
# [12] = system: NCI-H1734
# Outline: as §1
# [13] = system: NCI-H1755
# Outline: as §1
# [14] = system: NCI-H2009
# Outline: as §1
# [15] = system: NCI-H2228
# Outline: as §1
# [16] = system: NCI-H2347
# Outline: as §1
# [17] = system: NCI-H2405
# Outline: as §1
# [18] = system: NCI-H358
# Outline: as §1
# [19] = system: NCI-H520
# Outline: as §1
# [20] = system: NCI-H727
# Outline: as §1
# [21] = system: NCI-H838
# Outline: as §1
# [22] = system: SW 1573
# Outline: as §1
# [23] = system: UMC-11
# Outline: as §1
structure (smiles),measurement,setting,value
O=c1[nH]c2ccccc2n1C1CCN(CCCC(c2ccc(F)cc2)c2ccc(F)cc2)CC1 [Pimozide] + N=C(N)NC(=N)NCCc1ccccc1 [Phenformin] (partner 250 µM),relative viability,[1]; first compound 0.08 µM,0.467
same,relative viability,[1]; first compound 0.253 µM,0.404
same,relative viability,[1]; first compound 0.8 µM,0.444
same,relative viability,[1]; first compound 2.53 µM,0.379
same,relative viability,[1]; first compound 8 µM,0.44
same,relative viability,[2]; first compound 0.08 µM,0.265
same,relative viability,[2]; first compound 0.253 µM,0.258
same,relative viability,[2]; first compound 0.8 µM,0.227
same,relative viability,[2]; first compound 2.53 µM,0.287
same,relative viability,[2]; first compound 8 µM,0.209
same,relative viability,[3]; first compound 0.08 µM,0.278
same,relative viability,[3]; first compound 0.253 µM,0.274
same,relative viability,[3]; first compound 0.8 µM,0.258
same,relative viability,[3]; first compound 2.53 µM,0.289
same,relative viability,[3]; first compound 8 µM,0.3
same,relative viability,[4]; first compound 0.08 µM,0.664
same,relative viability,[4]; first compound 0.253 µM,0.609
same,relative viability,[4]; first compound 0.8 µM,0.528
same,relative viability,[4]; first compound 2.53 µM,0.535
same,relative viability,[4]; first compound 8 µM,0.469
same,relative viability,[5]; first compound 0.08 µM,0.253
same,relative viability,[5]; first compound 0.253 µM,0.206
same,relative viability,[5]; first compound 0.8 µM,0.138
same,relative viability,[5]; first compound 2.53 µM,0.142
same,relative viability,[5]; first compound 8 µM,0.278
same,relative viability,[6]; first compound 0.08 µM,0.781
same,relative viability,[6]; first compound 0.8 µM,0.628
same,relative viability,[6]; first compound 2.53 µM,0.635
same,relative viability,[6]; first compound 8 µM,0.678
same,relative viability,[7]; first compound 0.08 µM,0.501
same,relative viability,[7]; first compound 0.253 µM,0.367
same,relative viability,[7]; first compound 2.53 µM,0.237
same,relative viability,[7]; first compound 8 µM,0.345
same,relative viability,[8]; first compound 0.08 µM,0.43
same,relative viability,[8]; first compound 0.253 µM,0.702
same,relative viability,[8]; first compound 0.8 µM,0.677
same,relative viability,[8]; first compound 2.53 µM,0.79
same,relative viability,[8]; first compound 8 µM,0.581
same,relative viability,[9]; first compound 0.08 µM,0.45
same,relative viability,[9]; first compound 0.253 µM,0.435
same,relative viability,[9]; first compound 0.8 µM,0.437
same,relative viability,[9]; first compound 2.53 µM,0.417
same,relative viability,[9]; first compound 8 µM,0.404
same,relative viability,[10]; first compound 0.08 µM,0.378
same,relative viability,[10]; first compound 0.253 µM,0.45
same,relative viability,[10]; first compound 0.8 µM,0.495
same,relative viability,[10]; first compound 2.53 µM,0.418
same,relative viability,[10]; first compound 8 µM,0.306
same,relative viability,[11]; first compound 0.08 µM,0.608
same,relative viability,[11]; first compound 0.253 µM,0.5
same,relative viability,[11]; first compound 0.8 µM,0.597
same,relative viability,[11]; first compound 2.53 µM,0.555
same,relative viability,[11]; first compound 8 µM,0.513
same,relative viability,[12]; first compound 0.08 µM,0.408
same,relative viability,[12]; first compound 0.253 µM,0.366
same,relative viability,[12]; first compound 2.53 µM,0.373
same,relative viability,[12]; first compound 8 µM,0.426
same,relative viability,[13]; first compound 0.08 µM,0.585
same,relative viability,[13]; first compound 0.253 µM,0.587
same,relative viability,[13]; first compound 0.8 µM,0.574
same,relative viability,[13]; first compound 2.53 µM,0.64
same,relative viability,[13]; first compound 8 µM,0.538
same,relative viability,[14]; first compound 0.08 µM,0.476
same,relative viability,[14]; first compound 0.253 µM,0.479
same,relative viability,[14]; first compound 0.8 µM,0.507
same,relative viability,[14]; first compound 2.53 µM,0.46
same,relative viability,[14]; first compound 8 µM,0.391
same,relative viability,[15]; first compound 0.08 µM,0.371
same,relative viability,[15]; first compound 0.253 µM,0.293
same,relative viability,[15]; first compound 0.8 µM,0.338
same,relative viability,[15]; first compound 2.53 µM,0.225
same,relative viability,[15]; first compound 8 µM,0.192
same,relative viability,[16]; first compound 0.253 µM,0.474
same,relative viability,[16]; first compound 0.8 µM,0.374
same,relative viability,[16]; first compound 2.53 µM,0.451
same,relative viability,[16]; first compound 8 µM,0.269
same,relative viability,[17]; first compound 0.08 µM,0.412
same,relative viability,[17]; first compound 0.253 µM,0.389
same,relative viability,[17]; first compound 0.8 µM,0.478
same,relative viability,[17]; first compound 2.53 µM,0.381
same,relative viability,[17]; first compound 8 µM,0.418
same,relative viability,[18]; first compound 0.08 µM,0.295
same,relative viability,[18]; first compound 0.253 µM,0.37
same,relative viability,[18]; first compound 0.8 µM,0.366
same,relative viability,[18]; first compound 2.53 µM,0.313
same,relative viability,[18]; first compound 8 µM,0.327
same,relative viability,[19]; first compound 0.08 µM,0.724
same,relative viability,[19]; first compound 0.253 µM,0.615
same,relative viability,[19]; first compound 0.8 µM,0.613
same,relative viability,[19]; first compound 2.53 µM,0.623
same,relative viability,[19]; first compound 8 µM,0.678
same,relative viability,[20]; first compound 0.08 µM,0.467
same,relative viability,[20]; first compound 0.253 µM,0.641
same,relative viability,[20]; first compound 0.8 µM,0.448
same,relative viability,[20]; first compound 2.53 µM,0.684
same,relative viability,[20]; first compound 8 µM,0.577
same,relative viability,[21]; first compound 0.08 µM,0.609
same,relative viability,[21]; first compound 0.253 µM,0.636
same,relative viability,[21]; first compound 0.8 µM,0.636
same,relative viability,[21]; first compound 2.53 µM,0.519
same,relative viability,[21]; first compound 8 µM,0.562
same,relative viability,[22]; first compound 0.08 µM,0.348
same,relative viability,[22]; first compound 0.253 µM,0.309
same,relative viability,[22]; first compound 0.8 µM,0.341
same,relative viability,[22]; first compound 2.53 µM,0.377
same,relative viability,[22]; first compound 8 µM,0.388
same,relative viability,[23]; first compound 0.08 µM,0.331
same,relative viability,[23]; first compound 0.253 µM,0.333
same,relative viability,[23]; first compound 0.8 µM,0.344
same,relative viability,[23]; first compound 2.53 µM,0.313
same,relative viability,[23]; first compound 8 µM,0.245
